The structures appear in SMILES notation. Like-named read-outs stand apart in the source and are kept apart here. Bounds are passed on as bounds.

The text below walks through data of US8642621B2, “(4-phenyl-piperidin-1-yl)-[5-(1H-pyrazol-4-yl)-thiophen-3-yl]-methanone compounds and their use” (The University Of Edinburgh, priority 2009, dated 2014).

Data set [1] addresses T1, human 11β-HSD2 (Homo sapiens, UniProt P80365).
T1 construct: CHO cells stably transfected with the full-length gene coding for human 11β-HSD2 were used; expressed in transfected cells
T1 sequence (P80365 1-405): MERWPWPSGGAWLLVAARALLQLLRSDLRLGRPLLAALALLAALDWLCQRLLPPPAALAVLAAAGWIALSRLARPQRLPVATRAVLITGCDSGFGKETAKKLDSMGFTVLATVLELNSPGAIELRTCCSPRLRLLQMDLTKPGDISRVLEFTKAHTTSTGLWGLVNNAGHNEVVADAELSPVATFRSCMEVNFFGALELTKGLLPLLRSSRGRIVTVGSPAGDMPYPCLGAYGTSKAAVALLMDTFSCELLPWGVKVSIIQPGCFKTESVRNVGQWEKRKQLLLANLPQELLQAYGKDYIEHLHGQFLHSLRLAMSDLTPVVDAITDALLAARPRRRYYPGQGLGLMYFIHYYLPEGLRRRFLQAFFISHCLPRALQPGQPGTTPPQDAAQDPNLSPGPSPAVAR
As to the kind of experiment: Cellular in vitro 11β-HSD2 enzyme inhibition assay (CHO cells). In kind it is cell-based. The note with it: CHO cells stably transfected with human 11β-HSD2; Table 1. The procedure: Cellular In Vitro 11β-HSD2 Enzyme Inhibition Assay
Assays were carried out in 96-well microplates containing 1×10^5 cells/well. Controls and compounds were plated as above, so that the final DMSO concentration in each well was 1%. To initiate the assay, 90 μL of a solution of HAMS F-12 medium containing 1% glutamine, 1% penicillin and streptomycin, and 22 nM tritiated cortisol was added to each well of the assay plate. The plate was then incubated in 5% CO2, 95% O2 at 37° C. for 16 hours.
The assay solutions were transferred to glass tubes and 20 μL ethyl acetate added to each tube. Each tube was vortexed thoroughly and the upper layer containing the tritiated steroid transferred to a fresh glass tube. The solvent was evaporated by placing the tubes in a heating block at 65° C. under a stream of Nitrogen gas. 20 μL ethanol was added to each of the dried samples and vortexed briefly. Each sample was applied to a silica TLC plate and the plate dried. The plate was placed vertically in a glass tank containing 92% chloroform:8% ethanol and the solvent allowed to rise up the plate. The plate was dried, placed in an imaging cassette, and overlayed with a tritium imaging plate for 1-2 days. The amount of enzyme inhibition in each sample was determined by measuring the intensity of the substrate and product spots using a phosphoimager.
IC50 values for inhibitors were determined as described for 11β-HSD1.

In data set [2] the target is T2, human 11β-HSD1 enzyme (Homo sapiens, UniProt P28845).
T2 construct: stably transfected with a construct containing the full-length gene coding for the human 11β-HSD1 enzyme; expressed in transfected cells; HEK293/11β-HSD1 cells)
The data set is described as follows: Cellular in vitro 11β-HSD1 enzyme inhibition assay (SPA, HEK293/11β-HSD1 cells). The conditions noted are these: read-out: IC50 for 11β-HSD1 (HEK293). In kind it is cell-based. How it is done:
Cellular In Vitro 11β-HSD1 Enzyme Inhibition Assay
Compounds were assessed by a Scintillation Proximity Assay (SPA) performed according to the following protocol:
HEK293 cells were stably transfected with a construct containing the full-length gene coding for the human 11β-HSD1 enzyme to create HEK293/11β-HSD1 cells. Cells were routinely cultured in DMEM containing 10% calf foetal serum, 1% glutamine, and 1% penicillin and streptomycin. Prior to assay, cells were plated at 2×10^4 cells/well in 96-well poly-D-Lys coated flat-bottomed microplates and incubated in 5% CO2, 95% O2 at 37° C. for 24 hours. The media in each well was removed immediately before assay.
Compounds to be tested were dissolved in DMSO at 10 mM and serially diluted into water containing 10% DMSO. Diluted compounds at a volume of 10 μL were added to wells of a 96-well V-bottomed microplate. A solution of DMEM, 1% glutamine, 1% penicillin and streptomycin, and 22 nM tritiated cortisone was prepared and 90 μL added to each well of the assay plate. This solution (100 μL/well) was transferred to the plate containing the cells. The plate was then incubated in 5% CO2, 95% O2 at 37° C. for 2 hours.
Following this incubation, 50 μL of the assay solution was transferred to each well of a 96-well scintillation microplate. A mixture consisting of anti-mouse YSi SPA beads, pre-mixed with anti-cortisol antibody in assay buffer (50 mM Tris.HCl, pH 7.0; 300 mM NaCl; 1 mM EDTA, 5% glycerol) was prepared and 50 μL added to each well of the scintillation microplate. An adhesive strip was applied to the microplate and the plate gently shaken for at least 2 hours at room temperature, and then spun briefly on a low speed centrifuge. The plate was read on a scintillation counter suitable for 96-well microplates. For the calculation of percentage inhibition, a series of wells were added to the plate that represented the assay maximum and the assay minimum: one set that contained substrate without cells (minimum) and another set that contained substrate and cells without any compound (maximum).
The calculation of median inhibitory concentration (IC50) values for the compounds was performed using GraphPad Prism® software. Dose-response curves for each compound were plotted as fractional inhibition and data fitted to the four parameter logistic equation.

Data set [3] in a line: In vitro human liver microsomal stability assay. In kind it is in vitro ADME. The note with it: human liver microsomes. The procedure: In Vitro Human Liver Microsomal Stability Assay
To predict in vivo metabolism of compounds, the stability of compounds incubated with human liver microsomes in vitro was determined. Human liver microsome preparations were stored at −80° C. and thawed on ice prior to use. The thawed microsomes were diluted to a concentration of 2 mg/mL in 50 mM sodium phosphate, pH 7.4. Reference and test compounds were prepared as 10 mM stocks in 100% DMSO and diluted to 1 mM in acetonitrile before use. Each compound was tested in triplicate as follows:
4 μL of test or reference compound was added to a well of a 24-well microplate and 0.5 mL of 4 mM NADPH added. The plate was then transferred to a shaker for 10 minutes at room temperature. 30 μL of the compound/NADPH solution was transferred to the well of a 96-well microplate and incubated at 37° C. for 5 minutes. 30 μL of human liver microsomes (pre-incubated at 37° C. for 5 minutes) was added to the well containing the compound/NADPH solution and the plate incubated for the selected period of time (typically 0 or 30 minutes). The reaction was stopped by adding 60 μL of ice cold […] trichloroacetic acid. The plate was centrifuged at 1000 rpm for 5 minutes at room temperature and the supernatant transferred to the well of a new 96-well v-bottomed microplate for mass spectrometric analysis.
Samples were analyzed by TSQ Quantum Discovery Tandem Mass Spectrometer and Surveyor Liquid Chromatogram (Thermo, Hemel-Hempstead, UK). 10 μL of each sample was injected in a mobile phase consisting of 60%:40% methanol:5 mM ammonium acetate at a flow rate of 0.5 mL/minute. The column used was a BDS hypersil, C18, 50×2.1 mm with a 5 μm particle size.
Each compound was tuned with a spray voltage of 3000 V and a capillary temperature of 300° C. and values for tube lens, CID and product ions were determined.
The peak area for each compound was measured in triplicate for the 0 and 30 minute samples and the average of each was reported. The percentage remaining after 30 minutes was calculated as the average peak area of the sample after 30 minutes divided by the average peak area at 0 minutes. The RSD was 10% or lower for each compound.
(In general: Liver microsomes are vesicles of endoplasmic reticulum, rich in cytochrome P450 enzymes.)

The nature of data set [4]: Pharmacokinetics in rat. Format: in vivo, male Sprague Dawley rats. The conditions noted are these: male, Sprague Dawley, whole blood, intravenous 1 mg/kg and oral 10 mg/kg, read-out: % F (% Bioavailability). How it is done:
The pharmacokinetics of certain compounds were determined following intravenous (1 mg/kg) and oral (10 mg/kg) administration to male Sprague Dawley rats. Dosing solution was prepared by mixing each compound with 2% DMSO, 38% PEG-400 and 60% (0.9%) NaCl. Solutions were passed through 0.2 μm filters prior to administration.
Following dosing and at appropriate time points, blood samples were taken from a lateral tail vein and transferred into a tube pre-treated with EDTA. Blood samples were analysed for parent compound by LCMS and the quantity of parent compound remaining determined. Non-compartmental analysis was applied to the data using WinNonlin™ software to determine the pharmacokinetic parameters for each compound.

Where [5] appears, read: HEK293 cells stably transfected with human 11β-HSD1, Table 1.

T2 sequence (P28845 whole entry): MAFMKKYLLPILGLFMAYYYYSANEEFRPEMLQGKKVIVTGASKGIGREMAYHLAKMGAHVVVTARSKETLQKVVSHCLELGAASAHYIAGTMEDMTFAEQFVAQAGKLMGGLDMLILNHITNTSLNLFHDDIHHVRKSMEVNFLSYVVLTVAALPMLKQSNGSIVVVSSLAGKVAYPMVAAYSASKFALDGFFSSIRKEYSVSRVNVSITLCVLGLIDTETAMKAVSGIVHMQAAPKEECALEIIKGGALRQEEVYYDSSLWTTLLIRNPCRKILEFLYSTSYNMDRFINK

For orientation: IC50 means the concentration at which inhibition is half-maximal. In general, bioavailability refers to the share of a dose that reaches the circulation, judged against a reference dose that is usually intravenous. Take `O=C(c1csc(-c2cn[nH]c2)c1)N1CCC(O)(c2ccccc2)CC1` [AA-01, (4-Hydroxy-4-phenyl-piperidin-1-yl)-[5-(1H-pyrazol-4-yl)-thiophen-3-yl]-methanone]: the figures for the IC50 in data set [1], in data set [2] (setting [5]) and in data set [2] were more than 10 µM, 208 nM and not above 500 nM, respectively. For the same compound, in data set [3], the “% Parent Remaining at 30 min” value is “+++ (61-100% +++)”. In data set [4], the bioavailability was in the range of 31 to 100%.
On to `O=C(c1csc(-c2cn[nH]c2)c1)N1CCC(O)(c2ccc(Cl)cc2)CC1` [AA-02], for which the IC50 in data set [2] was not above 500 nM. Moreover, the “% Parent Remaining at 30 min” value in data set [3] is “+++ (61-100% +++)”. For the same compound, the bioavailability in data set [4] lay within 31 to 100%.
`O=C(c1csc(-c2cn[nH]c2)c1)N1CCC(O)(c2ccccc2F)CC1` [AA-04]: the IC50 was more than 10 µM in data set [1], 44 nM in data set [2] (setting [5]) and not above 500 nM in data set [2]. In data set [3], the “% Parent Remaining at 30 min” value is “+++ (61-100% +++)”. The bioavailability in data set [4] lay in the range of 31 to 100%.
In the same order, the values of `O=C(c1csc(-c2cn[nH]c2)c1)N1C2CCC1CC(O)(c1ccccc1)C2` (centres unmarked) [AA-06] are more than 10 µM, 21 nM, not above 500 nM, “+++ (61-100% +++)” and 11 to 30%.
As to `O=C(c1csc(-c2cn[nH]c2)c1)N1CCC(O)(c2ccccc2Cl)CC1` [AA-08], the IC50 in data set [1] was more than 10 µM; in data set [2] (setting [5]), 10 nM; in data set [2] it was not above 500 nM. The “% Parent Remaining at 30 min” value in data set [3] is listed as “++ (31-60% ++)”. In addition, in data set [4], the bioavailability was in the range of 31 to 100%.
Consider `O=C(c1csc(-c2cn[nH]c2)c1)N1CCC(O)(c2ccc(F)cc2Cl)CC1` [AA-12], for which the figures for the IC50 in data set [1], in data set [2] (setting [5]) and in data set [2] were more than 10 µM, 99 nM and not above 500 nM, respectively.
Regarding `COC1(c2ccccc2)CCN(C(=O)c2csc(-c3cn[nH]c3)c2)CC1` [AA-15], the IC50 was more than 10 µM in data set [1], 110 nM in data set [2] (setting [5]) and not above 500 nM in data set [2]. Further, the “% Parent Remaining at 30 min” value in data set [3] is listed as “++ (31-60% ++)”.
With `O=C(c1csc(-c2cn[nH]c2)c1)N1CCC(F)(c2ccccc2)CC1` [AA-17], the IC50 in data set [2] was 500 to 1000 nM. Besides, the “% Parent Remaining at 30 min” value in data set [3] is on record as “+++ (61-100% +++)”. Besides, the bioavailability in data set [4] was in the range of 31 to 100%.
For `O=C(c1csc(-c2cn[nH]c2)c1)N1CCC(F)(c2ccccc2F)CC1` [AA-18], the figures for the IC50 in data set [1], in data set [2] (setting [5]) and in data set [2] were more than 10 µM, 104 nM and not above 500 nM, respectively. Also, the “% Parent Remaining at 30 min” value in data set [3] is listed as “++ (31-60% ++)”.
The corresponding values for `Cc1cccc(F)c1C1(O)CCN(C(=O)c2csc(-c3cn[nH]c3)c2)CC1` [AA-22] are more than 10 µM, 38 nM, not above 500 nM and “+++ (61-100% +++)”.
The corresponding values for `O=C(c1csc(-c2cn[nH]c2)c1)N1C2CCC1CC(O)(c1ccccc1Cl)C2` (centres unmarked) [AA-30] are more than 10 µM, 15 nM, not above 500 nM and “++ (31-60% ++)”.
With `COC1(c2ccccc2Cl)CCN(C(=O)c2csc(-c3cn[nH]c3)c2)CC1` [AA-33], the IC50 is more than 10 µM in data set [1], 19 nM in data set [2] (setting [5]) and not above 500 nM in data set [2]. In addition, in data set [3], the “% Parent Remaining at 30 min” value is on record as “+ (0-30% +)”.
Regarding `O=C(c1csc(-c2cn[nH]c2)c1)N1CCC(F)(c2ccccc2Cl)CC1` [AA-36], the IC50 in data set [1] was more than 10 µM; in data set [2] (setting [5]) it was 42 nM; in data set [2], not above 500 nM. The “% Parent Remaining at 30 min” value in data set [3] is recorded as “+ (0-30% +)”.
In the same order, the values of `O=C(c1csc(-c2cn[nH]c2)c1)N1CCC(F)(c2cc(F)ccc2Cl)CC1` [AA-37] are more than 10 µM, 35 nM, not above 500 nM and “++ (31-60% ++)”.
In the same order, the values of `COc1ccccc1C1CCN(C(=O)c2csc(-c3cn[nH]c3)c2)CC1` [BB-03] are more than 10 µM, 107 nM, not above 500 nM and “+ (0-30% +)”.
The corresponding values for `O=C(c1csc(-c2cn[nH]c2)c1)N1C2CCC1CC(c1ccccc1)C2` (centres unmarked) [BB-08] are more than 10 µM, 114 nM, not above 500 nM and “++ (31-60% ++)”.
Consider `Cc1n[nH]cc1-c1cc(C(=O)N2CCC(c3ccccc3)CC2)cs1` [BB-11], for which the IC50 in data set [1] was more than 10 µM; in data set [2] (setting [5]) it was 638 nM; in data set [2] it was 500 to 1000 nM.
